Measurements reported in ChEMBL document CHEMBL1817566, “Halogen-substituted (C-β-D-glucopyranosyl)-hydroquinone regioisomers: synthesis, enzymatic evaluation and their binding to glycogen phosphorylase” (Bioorg Med Chem, 2011).

Molecular target: T1, Glycogen phosphorylase, muscle form (Oryctolagus cuniculus, UniProt P00489)
T1 sequence (P00489 whole entry): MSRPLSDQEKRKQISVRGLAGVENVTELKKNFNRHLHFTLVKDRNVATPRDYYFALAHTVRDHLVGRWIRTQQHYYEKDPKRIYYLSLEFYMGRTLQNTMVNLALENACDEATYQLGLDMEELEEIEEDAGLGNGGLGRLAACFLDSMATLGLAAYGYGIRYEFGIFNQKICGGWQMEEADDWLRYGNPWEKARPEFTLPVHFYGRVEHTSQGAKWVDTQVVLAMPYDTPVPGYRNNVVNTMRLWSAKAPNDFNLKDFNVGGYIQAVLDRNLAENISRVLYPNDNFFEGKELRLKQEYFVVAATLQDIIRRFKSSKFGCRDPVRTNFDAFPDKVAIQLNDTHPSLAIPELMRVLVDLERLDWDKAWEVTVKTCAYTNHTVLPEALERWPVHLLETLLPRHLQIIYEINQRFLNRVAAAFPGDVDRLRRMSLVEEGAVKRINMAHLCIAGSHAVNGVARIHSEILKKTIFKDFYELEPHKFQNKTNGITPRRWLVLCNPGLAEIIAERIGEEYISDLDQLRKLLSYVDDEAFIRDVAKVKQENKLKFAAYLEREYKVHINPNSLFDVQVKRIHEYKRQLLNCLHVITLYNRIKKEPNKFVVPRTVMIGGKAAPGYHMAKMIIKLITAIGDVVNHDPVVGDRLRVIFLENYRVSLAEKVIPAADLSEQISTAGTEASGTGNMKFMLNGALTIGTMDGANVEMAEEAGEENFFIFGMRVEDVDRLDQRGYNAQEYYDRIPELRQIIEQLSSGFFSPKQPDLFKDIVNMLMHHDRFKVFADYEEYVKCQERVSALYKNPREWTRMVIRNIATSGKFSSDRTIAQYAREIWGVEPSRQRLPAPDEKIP
Assay: Competitive inhibition of rabbit muscle glycogen phosphorylase b assessed as inorganic phosphate release using alphaD glucose-1-phosphate as substrate at pH 6.8 by spectrophotometric analysis
Design: species or system Muscle tissue

| Ki | IC50 | SMILES |
| --- | --- | --- |
| 1300 µM |  | O=C1C=CC(=O)C([C@@H]2O[C@H](CO)[C@@H](O)[C@H](O)[C@H]2O)=C1 |
|  | 95 µM | OC[C@H]1O[C@@H](c2cc(O)cc(Cl)c2O)[C@H](O)[C@@H](O)[C@@H]1O |
| 900 µM | 977 µM | OC[C@H]1O[C@@H](c2cc(O)ccc2O)[C@H](O)[C@@H](O)[C@@H]1O |
